# In patent US4760136A, “Chartreusin derivatives and salts thereof” (Ishihara Sangyo Kaisha, Ltd., priority 1984, dated 1988):
# Structures can show the parent of a compound that is named as a salt. Where two headings read alike, the source gives them in different places.
# Experiments:
# Assay type in all cases: in vivo
# P-388 leukemia cells = assay: Antitumor activity: P-388 leukemia cells inoculated intraperitoneally, drug administered intravenously, BDF1 mice; settings: for response vs control in vivo at 80 mg/kg: dose f: 80 mg/kg × 3, i.v. on days 1, 5 and 9; for response vs control in vivo at 10 mg/kg: dose a: 10 mg/kg × 3, i.v. on days 1, 5 and 9; for response vs control in vivo at 60 mg/kg: dose e: 60 mg/kg × 3, i.v. on days 1, 5 and 9
# Outline: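 Drug dosing was intravenous on the first, fifth and ninth days after intraperitoneal inoculation of P-388 leukemia cells (1×10^6 per mouse) into BDF1 mice. Vehicles were physiological saline alone, or saline with small amounts of sodium carboxymethyl cellulose or Tween-80.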
# ddY mice = assay: Acute toxicity, intravenous (once), ddY mice; settings: formulated per Preparation Example
# Text: (§1) In Table 7 are shown acute toxicity values (LD50, mg/kg) in ddY mice in the case of intravenously administering (once) each of the compounds of this invention in the form of preparations shown in the Preparation Examples shown in Table 7.
# [1] = Acute toxicity, intravenous (once), ddY mice; settings: mouse, in vivo, formulated per Preparation Example
# Text: as §1
# [2] = Mus musculus, P388, iv, dose b: 20 mg/kg × 3, i.v. on days 1, 5 and 9, BDF1 mice, P-388 i.p., read-out: T/C (%) of MST
# [3] = dose c: 40 mg/kg × 3, i.v. on days 1, 5 and 9, BDF1 mice, P-388 i.p.
# [4] = Mus musculus, P388, iv, dose c: 40 mg/kg × 3, i.v. on days 1, 5 and 9, BDF1 mice, P-388 i.p., read-out: T/C (%) of MST
# [5] = Mus musculus, P388, iv, BDF1 mice, P-388 i.p., read-out: T/C (%) of MST
# [6] = Mus musculus, P388, iv, read-out: T/C (%) of MST
Compound,LD50 (ddY mice),response vs control in vivo at 80 mg/kg (P-388 leukemia cells; [5]),LD50 ([1]; iv),also measured
"COC1C(O)C(C)OC(OC2C(Oc3cccc4c(OC(=O)C5CCCCC5NC(=O)C(F)(F)F)c5c(=O)oc6ccc(C)c7c(=O)oc(c34)c5c67)OC(C)C3OC(c4ccccc4)OC32)C1O (single isomer, unassigned) [Compound No. 26, 6-O-(N-Trifluoroacetyl-2-Amino-Cyclohexanecarbonyl)-3',4'-O-Benzylidene-Chartreusin]",≥ 40 mg/kg,–,–,response vs control in vivo at 20 mg/kg (P-388 leukemia cells; [2]): 195%; T/C (%) of MST (P-388 leukemia cells; [3]): 220%
"COC1C(O)C(C)OC(OC2C(Oc3cccc4c(OC(=O)C5CCCCC5NC(=O)C(F)(F)F)c5c(=O)oc6ccc(C)c7c(=O)oc(c34)c5c67)OC(C)C3OC(c4cccc(F)c4)OC32)C1O (single isomer, unassigned) [Compound No. 117, 6-O-(N-Trifluoroacetyl-2-Amino-Cyclohexanecarbonyl)-3',4'-O-(m-Fluorobenzylidene)-Chartreusin]",≥ 30 mg/kg,–,–,response vs control in vivo at 40 mg/kg (P-388 leukemia cells; [4]): 135%
COC1C(O)C(C)OC(OC2C(Oc3cccc4c(OC(=O)CCN)c5c(=O)oc6ccc(C)c7c(=O)oc(c34)c5c67)OC(C)C3OC(c4ccccc4)OC32)C1O (stereo not drawn) [Compound No. 17],≥ 40 mg/kg,–,–,response vs control in vivo at 20 mg/kg (P-388 leukemia cells; [2]): 206%; T/C (%) of MST (P-388 leukemia cells; [3]): 241%
"COC1C(O)C(C)OC(OC2C(Oc3cccc4c(OC(=O)CCNC(=O)C(F)(F)F)c5c(=O)oc6ccc(C)c7c(=O)oc(c34)c5c67)OC(C)C3OC(c4ccccc4)OC32)C1O (stereo not drawn) [Compound No. 28, 6-O-(N-Trifluoroacetyl-β-Alanyl)-3',4'-O-Benzylidene-Chartreusin]",≥ 120 mg/kg,193%,–,"response vs control in vivo at 120 mg/kg (P-388 leukemia cells; Mus musculus, P388, iv, dose h: 120 mg/kg × 3, i.v. on days 1, 5 and 9, BDF1 mice, P-388 i.p., read-out: T/C (%) of MST): 227%"
COC1C(O)C(C)OC(OC2C(Oc3cccc4c(OC(=O)CCNC(C)=O)c5c(=O)oc6ccc(C)c7c(=O)oc(c34)c5c67)OC(C)C3OC(c4ccccc4)OC32)C1O (stereo not drawn) [Compound No. 29],≥ 80 mg/kg,221%,–,response vs control in vivo at 40 mg/kg (P-388 leukemia cells; [4]): 173%
"COC1C(O)C(C)OC(OC2C(Oc3cccc4c(OC(=O)C(C)CNC(=O)C(F)(F)F)c5c(=O)oc6ccc(C)c7c(=O)oc(c34)c5c67)OC(C)C3OC(c4cccc(F)c4)OC32)C1O (stereo not drawn) [Compound No. 37, 6-O-(N-trifluoroacetyl-β-amino-isobutyryl)-3',4'-O-(m-fluorobenzylidene)-chartreusin]",≥ 30 mg/kg,–,–,response vs control in vivo at 10 mg/kg (P-388 leukemia cells; [5]): 146%
COC1C(O)C(C)OC(OC2C(Oc3cccc4c(OC(=O)CCNC=O)c5c(=O)oc6ccc(C)c7c(=O)oc(c34)c5c67)OC(C)C3OC(c4ccccc4)OC32)C1O (stereo not drawn) [Compound No. 40],≥ 100 mg/kg,205%,–,–
COC1C(O)C(C)OC(OC2C(Oc3cccc4c(OC(=O)CCNC(=O)C(F)(F)F)c5c(=O)oc6ccc(C)c7c(=O)oc(c34)c5c67)OC(C)C3OC(c4ccccc4)OC32)C1O (stereo not drawn) [Compound No. 41],≥ 100 mg/kg,–,–,T/C (%) of MST (P-388 leukemia cells; [3]): 157%
COC1C(O)C(C)OC(OC2C(Oc3cccc4c(OC(=O)CCCNC(=O)C(F)(F)F)c5c(=O)oc6ccc(C)c7c(=O)oc(c34)c5c67)OC(C)C3OC(c4ccc(F)cc4)OC32)C1O (stereo not drawn) [Compound No. 57],≥ 80 mg/kg,208%,–,response vs control in vivo at 40 mg/kg (P-388 leukemia cells; [4]): 162%
COC1C(O)C(C)OC(OC2C(Oc3cccc4c(OC(=O)CCNC(=O)c5ccccc5)c5c(=O)oc6ccc(C)c7c(=O)oc(c34)c5c67)OC(C)C3OC(c4ccccc4)OC32)C1O (stereo not drawn) [compound 65],≥ 60 mg/kg,175%,–,–
COC1C(O)C(C)OC(OC2C(Oc3cccc4c(OC(=O)CC(C)NC(=O)C(F)(F)F)c5c(=O)oc6ccc(C)c7c(=O)oc(c34)c5c67)OC(C)C3OC(c4ccccc4)OC32)C1O (stereo not drawn) [compound 66],≥ 60 mg/kg,171%,–,–
COC1C(O)C(C)OC(OC2C(Oc3cccc4c(OC(=O)CN(C)C(=O)C(F)(F)F)c5c(=O)oc6ccc(C)c7c(=O)oc(c34)c5c67)OC(C)C3OC(c4ccccc4)OC32)C1O (stereo not drawn) [compound 67],≥ 60 mg/kg,188%,–,–
COC1C(O)C(C)OC(OC2C(Oc3cccc4c(OC(=O)C(C)CNC(=O)C(F)(F)F)c5c(=O)oc6ccc(C)c7c(=O)oc(c34)c5c67)OC(C)C3OC(c4cccc(F)c4)OC32)C1O (stereo not drawn) [compound 68],≥ 80 mg/kg,210%,–,response vs control in vivo at 40 mg/kg (P-388 leukemia cells; [4]): 148%
"COC1C(O)C(C)OC(OC2C(Oc3cccc4c(OC(=O)CCN)c5c(=O)oc6ccc(C)c7c(=O)oc(c34)c5c67)OC(C)C3OC(c4ccccc4)OC32)C1O (stereo not drawn) [compound 80, 6-O-(β-alanyl)-3',4'-O-benzylidene-chartreusin hydrochloride]",–,184%,–,"T/C (%) of MST (P-388 leukemia cells; dose c: 40 mg/kg × 3, i.v. on days 1, 5 and 9, BDF1 mice, P-388 i.p., hydrochloride): 139%; LD50 (ddY mice; hydrochloride): ≥ 80 mg/kg"
COC1C(O)C(C)OC(OC2C(Oc3cccc4c(OC(=O)CCNC=O)c5c(=O)oc6ccc(C)c7c(=O)oc(c34)c5c67)OC(C)C3OC(c4ccsc4)OC32)C1O (stereo not drawn) [compound 89],≥ 80 mg/kg,173%,–,–
COC1C(O)C(C)OC(OC2C(Oc3cccc4c(OC(=O)c5ccc(Br)cc5)c5c(=O)oc6ccc(C)c7c(=O)oc(c34)c5c67)OC(C)C3OC(c4ccccc4)OC32)C1O (stereo not drawn) [compound 229],–,–,≥ 80 mg/kg,response vs control in vivo at 60 mg/kg (P-388 leukemia cells; [5]): 167%
C/C=C(\C)C(=O)Oc1c2cccc(OC3OC(C)C4OC(c5ccccc5)OC4C3OC3OC(C)C(O)C(OC)C3O)c2c2oc(=O)c3c(C)ccc4oc(=O)c1c2c43 (stereo not drawn) [compound 231],–,–,–,response vs control in vivo at 20 mg/kg (P-388 leukemia cells; [6]): 150%; LD50 [1]: ≥ 40 mg/kg
COC1C(O)C(C)OC(OC2C(Oc3cccc4c(OC(=O)C5CC5)c5c(=O)oc6ccc(C)c7c(=O)oc(c34)c5c67)OC(C)C3OC(c4ccccc4)OC32)C1O (stereo not drawn) [compound 232],–,–,≥ 40 mg/kg,response vs control in vivo at 10 mg/kg (P-388 leukemia cells; [5]): 146%
COC1C(O)C(C)OC(OC2C(Oc3cccc4c(OC(=O)C5CC5)c5c(=O)oc6ccc(C)c7c(=O)oc(c34)c5c67)OC(C)C3OC(CCc4ccccc4)OC32)C1O (stereo not drawn) [compound 233],–,–,≥ 60 mg/kg,response vs control in vivo at 60 mg/kg (P-388 leukemia cells; [5]): 165%
C/C=C(\C)C(=O)Oc1c2cccc(OC3OC(C)C4OC(c5ccc(OC)cc5)OC4C3OC3OC(C)C(O)C(OC)C3O)c2c2oc(=O)c3c(C)ccc4oc(=O)c1c2c43 (stereo not drawn) [compound 234],–,–,–,response vs control in vivo at 40 mg/kg (P-388 leukemia cells; [6]): 135%; LD50 [1]: ≥ 40 mg/kg
COC1C(O)C(C)OC(OC2C(Oc3cccc4c(OC(=O)CCCCCBr)c5c(=O)oc6ccc(C)c7c(=O)oc(c34)c5c67)OC(C)C3OC(C)(C)OC32)C1O (stereo not drawn) [compound 235],–,–,≥ 60 mg/kg,response vs control in vivo at 40 mg/kg (P-388 leukemia cells; [4]): 145%
COC1C(O)C(C)OC(OC2C(Oc3cccc4c(OC(=O)CC(C)CC(C)(C)C)c5c(=O)oc6ccc(C)c7c(=O)oc(c34)c5c67)OC(C)C3OC(C)(C)OC32)C1O (stereo not drawn) [compound 237],–,–,≥ 60 mg/kg,response vs control in vivo at 60 mg/kg (P-388 leukemia cells; [5]): 242%
CC=CC=CC(=O)Oc1c2cccc(OC3OC(C)C4OC(C)(C)OC4C3OC3OC(C)C(O)C(OC)C3O)c2c2oc(=O)c3c(C)ccc4oc(=O)c1c2c43 (stereo not drawn) [compound 238],–,192%,≥ 80 mg/kg,response vs control in vivo at 40 mg/kg (P-388 leukemia cells; [4]): 130%
CCCCC(CC)C(=O)Oc1c2cccc(OC3OC(C)C4OC(C)(C)OC4C3OC3OC(C)C(O)C(OC)C3O)c2c2oc(=O)c3c(C)ccc4oc(=O)c1c2c43 (stereo not drawn) [compound 239],–,–,≥ 60 mg/kg,response vs control in vivo at 60 mg/kg (P-388 leukemia cells; [5]): 153%
CCC(C)C(=O)Oc1c2cccc(OC3OC(C)C4OC5(CCCCC5)OC4C3OC3OC(C)C(O)C(OC)C3O)c2c2oc(=O)c3c(C)ccc4oc(=O)c1c2c43 (stereo not drawn) [compound 241],–,135%,≥ 80 mg/kg,–
COC1C(O)C(C)OC(OC2C(Oc3cccc4c(OC(=O)c5ccccc5)c5c(=O)oc6ccc(C)c7c(=O)oc(c34)c5c67)OC(C)C3OC(C)(C)OC32)C1O (stereo not drawn) [compound 242],–,–,≥ 40 mg/kg,response vs control in vivo at 20 mg/kg (P-388 leukemia cells; [2]): 137%
